Like-named read-outs stand apart in the source and are kept apart here. Blank lines part the entries; values can stand above or below the molecule they belong to.
Columns and labels:
Experiment in all cases: biochemical
Parameters in all cases: Eurofins DiscoverX kinase panel, competitive binding assay at 1 uM, percent of DMSO control
Settings in all cases: competitive binding, percent of DMSO control
[1] = target: KDR (Homo sapiens, UniProt P35968)
Procedure, shortened: (§1)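 Competitive binding assay across a 96-kinase panel with KIF18A compounds at 1 µM; values given as percentage of control (POC), single experiment.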

[2] = target: T1, TAOK2 (Homo sapiens, UniProt Q9UL54)
T1 sequence (Q9UL54 1-1235): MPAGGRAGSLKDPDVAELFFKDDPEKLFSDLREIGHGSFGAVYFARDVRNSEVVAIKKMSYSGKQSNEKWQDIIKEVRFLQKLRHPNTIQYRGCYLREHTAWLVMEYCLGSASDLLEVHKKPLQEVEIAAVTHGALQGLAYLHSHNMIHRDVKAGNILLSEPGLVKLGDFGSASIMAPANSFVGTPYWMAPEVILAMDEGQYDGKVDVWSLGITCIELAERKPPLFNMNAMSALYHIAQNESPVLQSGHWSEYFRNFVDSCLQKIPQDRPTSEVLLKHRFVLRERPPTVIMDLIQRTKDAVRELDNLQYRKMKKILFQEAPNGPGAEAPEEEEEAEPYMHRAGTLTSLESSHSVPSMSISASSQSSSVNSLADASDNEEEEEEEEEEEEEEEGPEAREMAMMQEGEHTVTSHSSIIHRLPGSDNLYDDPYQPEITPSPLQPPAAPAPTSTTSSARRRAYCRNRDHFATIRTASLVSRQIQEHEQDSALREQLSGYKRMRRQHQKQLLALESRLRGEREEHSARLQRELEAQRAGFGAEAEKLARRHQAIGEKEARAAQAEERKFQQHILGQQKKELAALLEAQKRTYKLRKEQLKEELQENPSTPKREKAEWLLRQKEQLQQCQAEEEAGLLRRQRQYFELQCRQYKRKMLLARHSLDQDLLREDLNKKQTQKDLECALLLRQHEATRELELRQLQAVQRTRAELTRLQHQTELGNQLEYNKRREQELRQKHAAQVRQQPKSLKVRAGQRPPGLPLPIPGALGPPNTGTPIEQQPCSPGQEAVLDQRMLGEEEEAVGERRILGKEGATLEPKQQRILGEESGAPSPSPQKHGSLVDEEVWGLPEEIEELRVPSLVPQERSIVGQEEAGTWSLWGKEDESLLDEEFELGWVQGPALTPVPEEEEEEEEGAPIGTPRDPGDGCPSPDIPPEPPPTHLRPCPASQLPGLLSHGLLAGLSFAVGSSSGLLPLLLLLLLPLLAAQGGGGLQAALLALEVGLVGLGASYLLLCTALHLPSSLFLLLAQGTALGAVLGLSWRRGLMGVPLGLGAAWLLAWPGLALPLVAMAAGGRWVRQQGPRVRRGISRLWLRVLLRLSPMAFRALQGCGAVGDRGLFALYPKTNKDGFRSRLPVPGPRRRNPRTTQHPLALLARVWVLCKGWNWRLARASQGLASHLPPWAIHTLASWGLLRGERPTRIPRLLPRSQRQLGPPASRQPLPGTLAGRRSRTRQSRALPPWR
Procedure, shortened: as §1

[3] = target: T2, Brk (Homo sapiens, UniProt Q13882)
T2 construct: gene PTK6
T2 sequence (Q13882 whole entry): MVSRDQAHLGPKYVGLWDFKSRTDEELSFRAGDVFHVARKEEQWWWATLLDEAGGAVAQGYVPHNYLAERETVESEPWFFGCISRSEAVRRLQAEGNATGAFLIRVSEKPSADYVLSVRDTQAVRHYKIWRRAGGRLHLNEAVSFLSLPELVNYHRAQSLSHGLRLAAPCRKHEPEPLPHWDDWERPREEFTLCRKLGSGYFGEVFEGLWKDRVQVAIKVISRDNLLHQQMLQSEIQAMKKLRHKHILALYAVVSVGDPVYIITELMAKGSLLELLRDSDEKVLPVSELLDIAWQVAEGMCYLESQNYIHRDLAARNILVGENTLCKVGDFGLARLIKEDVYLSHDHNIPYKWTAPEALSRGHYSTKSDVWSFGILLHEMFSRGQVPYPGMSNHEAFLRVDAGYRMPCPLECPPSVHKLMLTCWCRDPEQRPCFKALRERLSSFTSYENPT
Procedure, shortened: as §1

[4] = target: T3, TIE2 (Homo sapiens, UniProt Q02763)
T3 construct: gene TEK
T3 sequence (Q02763 whole entry): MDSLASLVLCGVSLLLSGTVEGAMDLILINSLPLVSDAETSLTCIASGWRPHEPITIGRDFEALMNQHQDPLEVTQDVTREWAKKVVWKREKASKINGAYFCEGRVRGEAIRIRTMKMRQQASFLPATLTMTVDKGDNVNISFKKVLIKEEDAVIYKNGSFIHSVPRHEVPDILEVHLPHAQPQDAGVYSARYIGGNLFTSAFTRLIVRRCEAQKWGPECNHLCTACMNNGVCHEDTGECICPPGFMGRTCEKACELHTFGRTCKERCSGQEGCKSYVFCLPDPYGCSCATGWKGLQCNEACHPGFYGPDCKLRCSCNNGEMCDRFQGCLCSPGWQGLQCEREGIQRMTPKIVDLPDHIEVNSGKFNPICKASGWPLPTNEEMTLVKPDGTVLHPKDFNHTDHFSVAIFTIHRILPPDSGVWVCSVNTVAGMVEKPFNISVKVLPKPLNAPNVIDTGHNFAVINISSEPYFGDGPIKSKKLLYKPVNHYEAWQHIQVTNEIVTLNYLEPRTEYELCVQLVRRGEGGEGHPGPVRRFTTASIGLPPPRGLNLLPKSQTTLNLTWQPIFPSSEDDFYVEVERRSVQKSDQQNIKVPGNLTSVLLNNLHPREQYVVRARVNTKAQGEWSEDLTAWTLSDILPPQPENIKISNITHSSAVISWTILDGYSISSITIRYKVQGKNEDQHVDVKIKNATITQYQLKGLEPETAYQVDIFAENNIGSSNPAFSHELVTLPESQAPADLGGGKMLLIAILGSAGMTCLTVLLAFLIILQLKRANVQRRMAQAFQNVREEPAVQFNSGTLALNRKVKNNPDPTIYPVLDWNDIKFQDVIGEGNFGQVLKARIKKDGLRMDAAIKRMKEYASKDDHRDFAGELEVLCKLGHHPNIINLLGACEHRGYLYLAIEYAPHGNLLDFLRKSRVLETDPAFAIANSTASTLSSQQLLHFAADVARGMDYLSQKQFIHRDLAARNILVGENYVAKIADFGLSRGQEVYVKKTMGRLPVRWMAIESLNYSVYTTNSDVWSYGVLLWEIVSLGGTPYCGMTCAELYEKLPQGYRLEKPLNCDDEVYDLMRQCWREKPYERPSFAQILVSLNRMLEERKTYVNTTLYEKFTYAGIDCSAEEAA
Procedure, shortened: as §1

[5] = read-out: Kinome Profiling performed by Eurofins DiscoverX / AM-1882, 1.0 µM / POC
[6] = read-out: Kinome Profiling performed by Eurofins DiscoverX / AM-5308, 1.0 µM / POC
[7] = read-out: Kinome Profiling performed by Eurofins DiscoverX / AM-0277, 1.0 µM / POC

Sequence of KDR (P35968 whole entry): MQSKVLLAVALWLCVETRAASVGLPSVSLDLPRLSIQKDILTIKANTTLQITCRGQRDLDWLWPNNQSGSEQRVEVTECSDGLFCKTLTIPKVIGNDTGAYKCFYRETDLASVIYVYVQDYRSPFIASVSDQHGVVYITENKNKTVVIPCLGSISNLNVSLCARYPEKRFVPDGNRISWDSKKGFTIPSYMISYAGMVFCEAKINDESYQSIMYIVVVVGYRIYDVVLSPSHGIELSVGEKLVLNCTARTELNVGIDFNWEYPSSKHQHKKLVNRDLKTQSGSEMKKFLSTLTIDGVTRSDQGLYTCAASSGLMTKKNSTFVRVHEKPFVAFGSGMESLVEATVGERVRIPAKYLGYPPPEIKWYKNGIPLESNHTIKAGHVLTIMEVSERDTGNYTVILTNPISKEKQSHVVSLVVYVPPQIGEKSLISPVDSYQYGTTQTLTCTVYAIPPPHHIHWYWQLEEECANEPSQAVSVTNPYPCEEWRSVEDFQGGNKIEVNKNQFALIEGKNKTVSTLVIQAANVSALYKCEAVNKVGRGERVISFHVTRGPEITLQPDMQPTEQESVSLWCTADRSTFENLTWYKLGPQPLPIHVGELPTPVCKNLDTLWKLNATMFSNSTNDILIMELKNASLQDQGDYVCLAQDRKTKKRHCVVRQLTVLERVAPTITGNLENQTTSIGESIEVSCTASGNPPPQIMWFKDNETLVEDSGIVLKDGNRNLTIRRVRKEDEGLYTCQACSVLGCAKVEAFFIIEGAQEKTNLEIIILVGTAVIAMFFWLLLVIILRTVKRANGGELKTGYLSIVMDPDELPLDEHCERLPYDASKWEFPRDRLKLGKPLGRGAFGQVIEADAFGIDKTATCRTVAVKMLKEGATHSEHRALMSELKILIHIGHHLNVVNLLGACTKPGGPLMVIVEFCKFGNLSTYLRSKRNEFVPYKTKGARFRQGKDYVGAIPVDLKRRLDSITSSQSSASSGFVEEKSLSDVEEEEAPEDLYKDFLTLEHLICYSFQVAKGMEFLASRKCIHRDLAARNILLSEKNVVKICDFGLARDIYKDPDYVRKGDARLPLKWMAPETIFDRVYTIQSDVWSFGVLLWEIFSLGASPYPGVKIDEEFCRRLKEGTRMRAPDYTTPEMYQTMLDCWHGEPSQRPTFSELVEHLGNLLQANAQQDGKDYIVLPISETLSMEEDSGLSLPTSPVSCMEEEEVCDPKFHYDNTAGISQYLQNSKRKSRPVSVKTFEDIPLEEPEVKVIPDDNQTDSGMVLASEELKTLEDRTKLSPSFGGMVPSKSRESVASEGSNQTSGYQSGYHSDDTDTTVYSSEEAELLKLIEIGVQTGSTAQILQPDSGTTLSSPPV

remaining activity at 1 µM [1, 5]: 80.5% | remaining activity at 1 µM [2, 5]: 81.5% | remaining activity at 1 µM [3, 5]: 94% | remaining activity at 1 µM [4, 5]: 94.5%
SMILES: CC(C)(C)NS(=O)(=O)c1cccc(NC(=O)c2ccc(S(=O)(=O)NC(C)(C)C)cc2N2CCC3(CC2)CC3)c1 [AM-1882]

remaining activity at 1 µM [1, 6]: 53% | remaining activity at 1 µM [2, 6]: 81% | remaining activity at 1 µM [3, 6]: 93.5% | remaining activity at 1 µM [4, 6]: 90%
SMILES: C[C@@H]1CN(c2cccc(NC(=O)c3ccc(NS(=O)(=O)CCO)cc3N3CCC4(CC3)CC4)n2)CCO1 [AM-5308]

remaining activity at 1 µM [1, 7]: 90% | remaining activity at 1 µM [2, 7]: 98% | remaining activity at 1 µM [3, 7]: 95% | remaining activity at 1 µM [4, 7]: 77%
SMILES: CC(C)(CO)Nc1ccc(C(=O)Nc2cccc(S(=O)(=O)C3CCCC3)c2)c(N2CCC3(CC2)CC3)n1 [AM-0277]
